The numbers were not newly measured in patent EP0408749A1, “DERIVATIVES OF 3,18-DIHYDROXY-9,13-EPOXYLABDANE, METHOD OF OBTAINING THEM AND A HEMOSTATIC PHARMACEUTICAL PREPARATION BASED THEREON” (TASHKENTSKY GOSUDARSTVENNY UNIVERSITET IMENI V.I. LENINA, priority 1988, dated 1990), which cites them from elsewhere.

This data set has as its system hemostatic effect. Particulars: prior art statement; cited from earlier work.

As to “3, 15, 16, 18-tetrahydroxy-9,13-epoxylabdane”, the hemostatic effect entry was “weak”.
